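Tested at 5 concentrations; 48 h exposure; 96-well plates; endpoints linearly interpolated, else capped at highest concentration. GI50 is the concentration that inhibits growth by half. TGI: concentration producing complete growth inhibition.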
Legend:
Test in all cases: NCI tumour cell line growth inhibition, 48 h
786-0 renal = test system: 786-0 renal
IGROV1 ovarian = test system: IGROV1 ovarian
MOLT-4 leukemia = test system: MOLT-4 leukemia
NCI-H226 lung = test system: NCI-H226 lung
NCI-H23 lung = test system: NCI-H23 lung
NCI-H460 lung = test system: NCI-H460 lung
SK-OV-3 ovarian = test system: SK-OV-3 ovarian
SN12C renal = test system: SN12C renal
SNB-75 CNS = test system: SNB-75 CNS
TK-10 renal = test system: TK-10 renal

With `CCN(CC)c1cc(/C=C/c2ccc(OC)c(OC)c2)nc2cc(F)c(F)cc12` the GI50 (786-0 renal) was 1.98 µM, the TGI (786-0 renal) was 4.77 µM and the GI50 (IGROV1 ovarian) was 3.46 µM. It also gave a TGI (IGROV1 ovarian) of 12 µM, a GI50 (MOLT-4 leukemia) of 14.2 µM and a TGI (MOLT-4 leukemia) of 33.6 µM. It also gave a GI50 (NCI-H226 lung) of 2.7 µM, a TGI (NCI-H226 lung) of 9.07 µM and a GI50 (NCI-H23 lung) of 4.06 µM. It also gave a TGI (NCI-H23 lung) of 14 µM, a GI50 (NCI-H460 lung) of 67.8 µM and a TGI (NCI-H460 lung) of over 100 µM. For the same compound, the GI50 (SK-OV-3 ovarian) was 1.98 µM, the TGI (SK-OV-3 ovarian) was 4.54 µM and the GI50 (SN12C renal) was 10.7 µM. For the same compound, the TGI (SN12C renal) was over 100 µM, the GI50 (SNB-75 CNS) was 1.39 µM and the TGI (SNB-75 CNS) was 2.89 µM. It also gave a GI50 (TK-10 renal) of 2.99 µM and a TGI (TK-10 renal) of 8.75 µM.
For `CC(=O)OC1CC(n2cc(F)c(=O)[nH]c2=O)OC1CO` (centres undefined), the TGI (786-0 renal) was over 62.5 µM, the TGI (IGROV1 ovarian) was over 100 µM and the TGI (MOLT-4 leukemia) was over 100 µM. The TGI (NCI-H226 lung) was over 100 µM, the TGI (NCI-H23 lung) was 77.1 µM and the TGI (NCI-H460 lung) was over 100 µM. For the same compound, the TGI (SK-OV-3 ovarian) was over 100 µM, the TGI (SN12C renal) was over 100 µM and the TGI (SNB-75 CNS) was over 100 µM. For the same compound, the TGI (TK-10 renal) was over 100 µM.
For `COc1ccc(NC(=O)n2nc(N)c3ccccc32)cc1OC`, the GI50 (786-0 renal) was over 100 µM, the TGI (786-0 renal) was over 100 µM and the GI50 (IGROV1 ovarian) was 18.1 µM. It also gave a TGI (IGROV1 ovarian) of 84 µM, a GI50 (MOLT-4 leukemia) of 39.4 µM and a TGI (MOLT-4 leukemia) of over 100 µM. The GI50 (NCI-H226 lung) was 83.1 µM, the TGI (NCI-H226 lung) was over 100 µM and the GI50 (NCI-H23 lung) was 83.5 µM. For the same compound, the TGI (NCI-H23 lung) was over 100 µM, the GI50 (NCI-H460 lung) was 34.5 µM and the TGI (NCI-H460 lung) was over 100 µM. It also gave a GI50 (SK-OV-3 ovarian) of over 100 µM, a TGI (SK-OV-3 ovarian) of over 100 µM and a GI50 (SN12C renal) of over 100 µM. It also gave a TGI (SN12C renal) of over 100 µM, a GI50 (SNB-75 CNS) of 30.6 µM and a TGI (SNB-75 CNS) of over 100 µM. It also gave a GI50 (TK-10 renal) of 92.4 µM and a TGI (TK-10 renal) of over 100 µM.
For `C1CCN(CCC2CCCCN2)CC1` (centres undefined), the TGI (786-0 renal) was over 100 µM, the TGI (IGROV1 ovarian) was over 100 µM and the TGI (MOLT-4 leukemia) was over 100 µM. It also gave a TGI (NCI-H226 lung) of over 100 µM, a TGI (NCI-H23 lung) of over 100 µM and a TGI (NCI-H460 lung) of over 100 µM. It also gave a TGI (SK-OV-3 ovarian) of over 100 µM, a TGI (SN12C renal) of over 100 µM and a TGI (SNB-75 CNS) of over 100 µM. It also gave a TGI (TK-10 renal) of over 100 µM.
In the case of `CCOC(=O)c1sc2nc3sc(N=Nc4ccc(Cl)cc4)c(O)n3c(=S)c2c1C`, the GI50 (786-0 renal) is reported as 32.4 µM, the TGI (786-0 renal) is reported as over 100 µM and the GI50 (IGROV1 ovarian) is reported as over 100 µM. It also gave a TGI (IGROV1 ovarian) of over 100 µM, a GI50 (MOLT-4 leukemia) of over 100 µM and a TGI (MOLT-4 leukemia) of over 100 µM. The TGI (NCI-H226 lung) was 21.6 µM, the GI50 (NCI-H23 lung) was 14.2 µM and the TGI (NCI-H23 lung) was 42.4 µM. The GI50 (NCI-H460 lung) was 25.9 µM, the TGI (NCI-H460 lung) was over 100 µM and the GI50 (SK-OV-3 ovarian) was 31 µM. It also gave a TGI (SK-OV-3 ovarian) of over 100 µM, a GI50 (SN12C renal) of 15.5 µM and a TGI (SN12C renal) of 46.5 µM. It also gave a GI50 (SNB-75 CNS) of 15.5 µM, a TGI (SNB-75 CNS) of over 100 µM and a GI50 (TK-10 renal) of 25.9 µM. It also gave a TGI (TK-10 renal) of 96.4 µM.
For `CC(C)CCOc1ccc(-c2n[nH]c(C(F)(F)F)c2-c2cncc(C#N)c2)c(O)c1`, the GI50 (786-0 renal) was 2.96 µM, the TGI (786-0 renal) was 13.1 µM and the GI50 (IGROV1 ovarian) was 3.35 µM. It also gave a TGI (IGROV1 ovarian) of over 100 µM, a GI50 (MOLT-4 leukemia) of 2.47 µM and a TGI (MOLT-4 leukemia) of 12.7 µM. It also gave a GI50 (NCI-H226 lung) of 2.57 µM, a TGI (NCI-H226 lung) of 9.98 µM and a GI50 (NCI-H23 lung) of 1.77 µM. For the same compound, the TGI (NCI-H23 lung) was 7.59 µM, the GI50 (NCI-H460 lung) was 2.5 µM and the TGI (NCI-H460 lung) was 12.5 µM. It also gave a GI50 (SK-OV-3 ovarian) of 2.2 µM, a TGI (SK-OV-3 ovarian) of 6.6 µM and a GI50 (SN12C renal) of 2.34 µM. It also gave a TGI (SN12C renal) of 15.9 µM, a GI50 (SNB-75 CNS) of 2.77 µM and a TGI (SNB-75 CNS) of 14.6 µM. The GI50 (TK-10 renal) was 3.15 µM and the TGI (TK-10 renal) was 14.1 µM.
Work on `CCn1c2c(n(CC)c1=S)-c1c(n(CC)c(=S)n1CC)SSSS2` yielded a TGI (786-0 renal) of 28.6 µM, a TGI (IGROV1 ovarian) of 34.3 µM and a TGI (MOLT-4 leukemia) of 11.1 µM. For the same compound, the TGI (NCI-H226 lung) was 52.2 µM, the TGI (NCI-H23 lung) was 22.3 µM and the TGI (NCI-H460 lung) was over 77.9 µM. For the same compound, the TGI (SK-OV-3 ovarian) was 98.9 µM, the TGI (SN12C renal) was 24 µM and the TGI (SNB-75 CNS) was 26.6 µM. The TGI (TK-10 renal) was 28.4 µM.
`COc1cc2c(cc1OC)-c1cc3cc(OC)c(OC)cc3n1CC2` was tested, and the TGI (786-0 renal) was 66.6 µM, the TGI (IGROV1 ovarian) was over 100 µM and the TGI (MOLT-4 leukemia) was over 100 µM. The TGI (NCI-H226 lung) was 73.5 µM, the TGI (NCI-H23 lung) was over 100 µM and the TGI (NCI-H460 lung) was over 100 µM. For the same compound, the TGI (SK-OV-3 ovarian) was over 100 µM, the TGI (SN12C renal) was over 100 µM and the TGI (SNB-75 CNS) was 50.5 µM. It also gave a TGI (TK-10 renal) of 51.9 µM.
In the case of `CC(=O)c1ccc(NC(=O)CSc2nnc(-c3cc(-c4ccc(C)cc4)nc4ccccc34)o2)cc1`, the GI50 (786-0 renal) is reported as 1.61 µM, the TGI (786-0 renal) is reported as 3.51 µM and the GI50 (IGROV1 ovarian) is reported as 3.31 µM. For the same compound, the TGI (IGROV1 ovarian) was over 100 µM, the GI50 (MOLT-4 leukemia) was 3.31 µM and the TGI (MOLT-4 leukemia) was over 100 µM. It also gave a GI50 (NCI-H226 lung) of 2.39 µM, a TGI (NCI-H226 lung) of 6.37 µM and a GI50 (NCI-H23 lung) of 3.73 µM. The TGI (NCI-H23 lung) was 61.3 µM, the GI50 (NCI-H460 lung) was 2.36 µM and the TGI (NCI-H460 lung) was 6.04 µM. It also gave a GI50 (SK-OV-3 ovarian) of 2.64 µM, a TGI (SK-OV-3 ovarian) of 8.22 µM and a GI50 (SN12C renal) of 2.15 µM. For the same compound, the TGI (SN12C renal) was 5.45 µM, the GI50 (SNB-75 CNS) was 1.77 µM and the TGI (SNB-75 CNS) was 3.57 µM. It also gave a GI50 (TK-10 renal) of 1.99 µM and a TGI (TK-10 renal) of 4.89 µM.
